Data taken from paper PMC6588349 (eLife, 2019).

Legend:
[1] = Gramicidin-based fluorescence quench assay for changes of lipid bilayer properties (LUVs); type: physicochemical; settings: 1 to 10 µM
Description: To further probe this, we used a fluorescence quench assay for drug-induced changes of lipid bilayer properties ([Ingólfsson and Andersen, 2010]) (Figure 6—figure supplement 3A; see Materials and methods), in which changes in gramicidin channel function is used as a reporter of membrane modification. […] The persistent BINA response is thus consistent with a model where BINA readily partitions into the plasma membrane lipid bilayer (and possibly other lipidic compartments).
The gramicidin-based fluorescence assay has been described previously ([Ingólfsson and Andersen, 2010]). In brief, large unilamellar vesicles (LUVs), loaded with intravesicular ANTS were prepared from DC22:1PC and gramicidin (weight ratio 1000:1, corresponding to a ~ 2000:1 molar ratio) using freeze-drying, extrusion and size-exclusion chromatography; the final lipid concentration was 4–5 mM; the suspension was stored in the dark at 12.5°C for a maximum of 7 days. […] Before use, the LUV-ANTS stock was diluted to 200–250 μM lipid with NaNO3 buffer (140 mM NaNO3, 10 mM HEPES, pH 7).
The NAMs and PAMs (dissolved in DMSO) or DMSO (as control) were added to a LUV-ANTS sample and equilibrated at 25°C in the dark for 10 min. before the mixture was loaded into a stopped-flow spectrofluorometer (Applied Photophysics SX.20, Leatherhead, UK) and mixed with either NaNO3 buffer or TlNO3 buffer; Tl^+ (thallous ion) is a gramicidin channel-permeant quencher of the ANTS fluorescence. Samples were excited at 352 nm and the fluorescence signal above 455 nm was recorded in the absence (four successive trials) or presence (nine successive trials) of the quencher. All the NAM and PAM derivatives fluoresce to varying degrees and addition of these drugs to LUVs in control experiments without gA or Tl^+ increased the fluorescence signal, and each signal was normalized to account for the compound's fluorescence. […] The quench rate (Rate), the rate of Tl^+ influx, was determined at 2 ms: Rate=β/τ0⋅(t/τ0)^β−1|2ms […]

[2] = target: T1, SNAP-mGluR2 (full-length) (Rattus norvegicus, UniProt P31421); test: Inter-LBD FRET assay with full-length SNAP-mGluR2; type: cell-based; settings: drug applied alone, saturating concentrations
T1 construct: HEK 293T cells expressing full-length mGluR2; expressed in transfected cells; host or cells: HEK 293T
Description: We next sought to further probe the variation in PAM-induced inter-TMD FRET changes. […] We used an inter-LBD FRET assay to assess the relative strength of allosteric modulation by different mGluR2 PAMs. Agonists induce a decrease in FRET between fluorophore-conjugated N-terminal SNAP- and CLIP-tags (Figure 4E). […] We tested this effect for all PAMs by applying a saturating concentration of DCG-IV followed by co-application of a saturating concentration of each PAM, which produced further FRET decreases (Figure 4F,G).
(§1) Fluorophores were diluted in EX solution, which was also used to wash coverslips following labeling and prior to mounting on the microscope. After labeling, cells were mounted on an inverted microscope (Olympus IX73) and imaged with a 60x objective. […] Clusters of cells were analyzed together using ImageJ and FRET was calculated as FRET=(IAcceptor)/(IDonor +IAcceptor) where I is fluorescence intensity. No corrections were made for bleed-through between channels or the contribution of donor-donor or acceptor-acceptor dimers as analysis was limited to relative FRET changes between drug treatments rather than absolute FRET values. […] FRET changes calculated for dose–response curves were normalized to the response to saturating […] applied within the same recording and dose–response curves were obtained from multiple cell clusters and averaged from at least three separate experiments. Dose–response curves were fit using Prism (Graphpad). All drugs were purchased from Tocris, prepared in EX solution, and delivered with a gravity-driven perfusion system. For kinetics measurements a pressurized perfusion system (Automate Scientific) was used to produce a flow rate of 0.5 mL/s. Kinetic analysis was performed in Microsoft Excel. The time between 10% and 90% FRET increase or decrease was determined manually. For photo-bleaching/donor-recovery experiments, images were taken in donor and acceptor channels at baseline and again followed by a 1 min exposure to 640 nm laser illumination at maximum intensity. All experiments were performed at room temperature. All data were produced from at least two separate transfections for each condition.

[3] = target: T2, full-length mGluR2 (SNAP-mGluR2) (Rattus norvegicus, UniProt P31421); test: GIRK activation assay, whole cell patch clamp, HEK 293T cells expressing full-length mGluR2; type: cell-based; settings: for EC50: read-out: GIRK activation EC50
T2 construct: HEK 293T cells expressing full-length mGluR2; expressed in transfected cells; host or cells: HEK 293T
Description: (§2) Cells were cultured in DMEM with 5% FBS on poly-L-lysine-coated glass coverslips. DNA plasmids were transfected into cells using Lipofectamine 3000 (Thermo Fisher). […] For single-molecule pulldown (SiMPull) experiments, cells were transfected with 0.7 μg DNA of HA and SNAP-tagged receptor constructs, unless otherwise noted.
Whole-cell patch clamp recordings from single isolated cells were performed 24–36 hr after transfection in a high-potassium extracellular solution containing (in mM): 120 KCl, 29 NaCl, 1 MgCl2, 2 CaCl2 and 10 HEPES, pH 7.4. Cells were voltage clamped to −60 mV using an Axopatch 200B amplifier (Axon Instruments) and membrane currents were recorded. Glass pipettes of resistance between 3 and 8 MΩ were filled with intracellular solution containing (in mM): 140 KCl, 10 HEPES, 3 Na2ATP, 0.2 Na2GTP, 5 EGTA and 3 MgCl2, pH 7.4. Data were acquired with a 2 kHz acquisition rate and filtered with the amplifier 4-pole Bessel filter at 1 kHz. Drugs were prepared in extracellular solution and applied using a gravity-driven perfusion system. Data were analyzed with Clampfit (Molecular Devices) and Prism (GraphPad). Data for all conditions came from at least two separate transfections.

SNAP-mGluR2-TMD = target: T3, SNAP-mGluR2-TMD (Rattus norvegicus, UniProt P31421); test: Inter-TMD FRET assay in living HEK 293T cells; type: cell-based; settings: for EC50: SNAP-mGluR2-TMD labeled with donor and acceptor, normalized to saturating LY48, mean ± s.e.m., read-out: inter-TMD FRET increase EC50
T3 construct: mGluR2-TMD (rat) starts at Q558; expressed in transfected cells; host or cells: HEK 293T
Description: We therefore sought to develop a FRET sensor that reports on activation-associated motions driven by allosteric drugs and hypothesized that an N-terminal fluorophore on the isolated TMD should report on any inter-TMD rearrangement while allowing the receptor to maintain G-protein coupling (Figure 3A). […] To test if LBD-independent inter-TMD rearrangement is a feature of other mGluRs, we asked if donor and acceptor conjugation to SNAP-mGluR5-TMD would allow for the detection a FRET response to a PAM.
as §2, with “noted. For FRET experiments, cells were transfected with either SNAP-tagged constructs at 0.5–0.7 μg of DNA/well or SNAP and CLIP-tagged constructs at a ratio of 1:2 with 0.3 μg of SNAP DNA/well.” for “noted.”
as §1

SNAP-mGluR2 = target: T4, SNAP-mGluR2 (Rattus norvegicus, UniProt P31421); test: Single-molecule pulldown (SiMPull) photobleaching step counting, full-length SNAP-mGluR2; settings: saturating (1 mM) glutamate
T4 construct: HEK 293T cells expressing full-length mGluR2; expressed in transfected cells; host or cells: HEK 293T
Description: To restrict our analysis to surface-targeted receptors, we expressed N-terminally SNAP-tagged receptor variants and labeled them with membrane-impermeable fluorophores.
To test this, we incubated SNAP-mGluR2-TMD expressing cells and lysates with PAMs or NAMs during the SiMPull experiment.
Briefly, to prevent non-specific sticking of proteins, flow chambers were prepared with mPEG-passivated glass slides and coverslips doped with ~1% biotinylated mPEG, as previously described. Prior to each experiment, chambers were incubated with 0.2 mg/mL NeutrAvidin (ThermoFisher) for 2 min followed by 10 nM of a biotinylated anti-HA antibody (abcam ab26228) for 20–30 min. After each conjugation step, the chambers were washed with T50 buffer (50 mM NaCl, 10 mM Tris, pH 7.5).
After labeling, cells were dissociated from coverslips by incubating with Ca^2+-free PBS for 20 min followed by gentle pipetting. […] Following 1 hr of lysis at 4°C, cells were centrifuged at 16,000 g for 20 min before the supernatant was collected and maintained on ice. The cell lysate was diluted in a 0.1% detergent dilution buffer to obtain sparse immobilization of labeled protein on the passivated slide. […]
Single molecules were imaged with a 100x objective on an inverted microscope (Olympus IX73) in total internal reflection fluorescence (TIRF) mode. […]

SNAP-mGluR5-TMD = SNAP-mGluR5-TMD (Homo sapiens, UniProt P41594); test: Inter-TMD FRET assay with SNAP-mGluR5-TMD; type: cell-based, H. sapiens; settings: mGluR5 PAM applied alone
SNAP-mGluR5-TMD, sequence (P41594 570-876 limits assumed): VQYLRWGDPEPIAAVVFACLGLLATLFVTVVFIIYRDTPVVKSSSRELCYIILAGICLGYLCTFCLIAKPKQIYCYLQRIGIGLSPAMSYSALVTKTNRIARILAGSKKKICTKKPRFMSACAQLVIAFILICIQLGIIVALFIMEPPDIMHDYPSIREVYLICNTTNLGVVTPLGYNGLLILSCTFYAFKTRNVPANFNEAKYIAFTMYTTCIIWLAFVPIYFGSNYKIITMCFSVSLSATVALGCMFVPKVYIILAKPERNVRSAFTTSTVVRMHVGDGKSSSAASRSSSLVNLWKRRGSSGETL

T3 sequence (P31421 558-872 limits assumed): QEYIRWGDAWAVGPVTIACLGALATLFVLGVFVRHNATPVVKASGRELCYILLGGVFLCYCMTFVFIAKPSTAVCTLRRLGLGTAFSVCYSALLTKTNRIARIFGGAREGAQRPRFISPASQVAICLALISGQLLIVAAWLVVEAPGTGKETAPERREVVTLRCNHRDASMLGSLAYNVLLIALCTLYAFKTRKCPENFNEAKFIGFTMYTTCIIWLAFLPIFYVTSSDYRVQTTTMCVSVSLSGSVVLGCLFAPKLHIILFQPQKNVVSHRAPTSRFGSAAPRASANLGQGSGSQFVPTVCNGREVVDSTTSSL
T1 sequence (P31421 19-872): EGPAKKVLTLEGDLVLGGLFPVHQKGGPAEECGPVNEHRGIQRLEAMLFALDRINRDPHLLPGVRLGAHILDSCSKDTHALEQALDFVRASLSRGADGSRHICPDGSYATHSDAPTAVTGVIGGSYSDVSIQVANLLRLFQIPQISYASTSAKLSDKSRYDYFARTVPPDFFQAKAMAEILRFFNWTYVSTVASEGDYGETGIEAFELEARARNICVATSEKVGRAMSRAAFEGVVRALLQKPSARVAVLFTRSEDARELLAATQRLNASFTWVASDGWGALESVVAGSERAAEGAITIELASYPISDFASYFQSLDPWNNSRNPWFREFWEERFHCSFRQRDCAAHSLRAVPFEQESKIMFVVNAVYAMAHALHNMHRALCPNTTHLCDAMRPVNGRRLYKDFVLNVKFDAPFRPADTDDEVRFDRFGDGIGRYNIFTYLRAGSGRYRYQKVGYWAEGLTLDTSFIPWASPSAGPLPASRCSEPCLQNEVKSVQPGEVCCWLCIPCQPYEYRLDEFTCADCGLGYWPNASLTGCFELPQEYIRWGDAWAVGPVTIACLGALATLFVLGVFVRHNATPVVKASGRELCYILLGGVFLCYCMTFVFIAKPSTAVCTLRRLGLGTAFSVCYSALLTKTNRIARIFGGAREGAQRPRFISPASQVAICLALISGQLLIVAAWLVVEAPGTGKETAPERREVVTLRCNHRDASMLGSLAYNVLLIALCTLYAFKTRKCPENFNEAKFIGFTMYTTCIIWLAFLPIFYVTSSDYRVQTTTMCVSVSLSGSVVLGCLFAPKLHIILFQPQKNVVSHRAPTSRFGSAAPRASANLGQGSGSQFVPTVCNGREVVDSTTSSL
T2 sequence (P31421 19-872): as above
T4 sequence (P31421 19-872): as above

Row | direct effect on inter-LBD FRET (no orthosteric agonist for modulators) [2] | EC50 [3] [nM] | EC50 (SNAP-mGluR2-TMD) [nM] | inter-TMD FRET response onset (SNAP-mGluR2-TMD; saturating concentrations) [s] | inter-TMD FRET response reversal (SNAP-mGluR2-TMD; saturating concentrations) [min] | SMILES | also measured
1 |  |  |  |  |  | Cc1c(OCc2cccc(-c3ccc(C(=O)O)cc3)c2)cc2c(c1C)C(=O)C(C1CCCC1)C2 (stereo not drawn) [BINA] | changes in gramicidin channel function (membrane properties) [1]: greatest changes in gramicidin channel function
2 | no FRET response | 460 ± 200 | 3500 ± 200 | 10 to 40 | < 2 | CCS(=O)(=O)N(Cc1cccnc1)c1cccc(-c2ccc(C#N)cc2)c1 [CBiPES] | inter-TMD FRET kinetics relative to LY48 (SNAP-mGluR2-TMD): substantially faster ON and OFF kinetics
3 | large FRET decrease |  |  |  |  | N[C@@H](CCC(=O)O)C(=O)O [Glutamate] | two-step bleaching events of SNAP-mGluR2 with glutamate (SNAP-mGluR2): ~ 60%; GIRK current time 10% to 90% ([3]; saturating: 10 µM LY48, 1 mM Glutamate): 1.9 ± 0.5 s
4 | no FRET response | 380 ± 110 | 900 ± 100 | 10 to 40 | < 2 | Cc1c(C(N)=O)nc2n1C[C@@H](COc1ccc(C(C)(C)C)cc1)O2 [TASP] | maximum inter-TMD FRET increase relative to LY48 (SNAP-mGluR2-TMD; saturating concentrations, compared to saturating LY48): ~ 1.3 times that of LY48
5 |  |  |  |  |  | O=C(NC1CCC1)c1ccc(C#Cc2cccc(F)c2)nc1 [VU0360172] | inter-TMD FRET response of SNAP-mGluR5-TMD (SNAP-mGluR5-TMD): reversible FRET response
6 |  |  |  |  |  | O=C(O)c1cc(O)c2cccc(O)c2n1 [XA, Xanthurenic acid] | inter-TMD FRET response to drug alone (SNAP-mGluR2-TMD; drug applied alone, XA up to 50 µM): neither inter-TMD FRET changes
